System: U937 cells
Assay: Cell cycle detection in U937 cells
Type: cell-based, human
Conditions: 24 hours
Experimental: Cell cycle detection: Took cells in good growth status and adjusted the density to 8×10^5 cells/mL, and evenly distributed them into 6-well plates, 2 mL per well. Then the compound was diluted in gradient and added to the cell suspension, and incubated in an incubator for 24 hours. BD Cycletest™ Plus DNA Reagent Kit was used for staining in this experiment. After 24 hours, the cells were collected into a 15 mL centrifuge tube, and the 6-well plate was washed twice with PBS. The washing solutions were merged into a 15 mL centrifuge tube, centrifuged at 12000 rpm for 5 minutes, and the supernatant was discarded. Added 5 mL of buffer solution to each tube and the cells were gently resuspended. Centrifuge: 12000 rpm for 5 minutes, the supernatant was carefully removed and left about 50 μL of liquid without discarding. Added 1.5 mL of buffer solution to each tube to gently resuspend the cells, which were carefully transferred to a 1.5 mL EP tube. Adjusted the cell concentration to 1×10^6 cells/mL, to meet the requirements of 5×10^5 cells to complete this experiment. Centrifuged at 1200 rpm for 5 minutes, and the supernatant was carefully aspirated. Added 125 μL of Solution A, mixed gently and reacted at room temperature for 10 minutes. Added 100 μL of Solution B, mixed gently and reacted at room temperature for 10 minutes. […]

C=CC(=O)Nc1cc(Nc2ncc(Cl)c(O[C@@H]3CO[C@H]4[C@@H]3OC[C@H]4OC)n2)ccc1N(C)CCN(C)C [LS 6-45]
cell cycle related proteins (CDK2, CDK4, CDK6, Cyclin B1, Cyclin D3, Cyclin E1): significantly down-regulated
cell cycle (different concentrations): obvious G0/G1 phase block

From patent US20230348487A1, “2-AMINOPYRIMIDINE COMPOUND AND PHARMACEUTICAL COMPOSITION THEREOF AND APPLICATION THEREOF” (GUANGZHOU SALUSTIER BIOSCIENCES CO., LTD., priority 2021, published 2023)
